Assay results published in US9988430B2, “Stable GLP-1 based GLP-1/glucagon receptor co-agonists” (Novo Nordisk A/S, priority 2014, dated 2018).
*1 amine or outer side, *2 acyl side, *3 side chain or, on linkers, in order; H or OH if unused. Where a SMILES comes first, the peptide text is derived from it. Bridges are numbered along the chain shown (N, C = ends). Roman numbers before positions name the chains, in order. Side-chain parts run from the residue outwards. [ ]: non-standard residue; d: D form. The star is where a group is joined. C18 diacid = O=C(O)CCCCCCCCCCCCCCCCC(=O)*; γGlu = O=C(O)[C@H](CCC(=O)[*:2])N[*:1]; Desaminohistidyl = O=C(CCc1c[nH]cn1)*; Ac4c = NC1(C(=O)O)CCC1; AEEA = NCCOCCOCC(=O)O; Aib = CC(C)(N)C(=O)O

Target: T1, human GLP-1 receptor (Homo sapiens, UniProt P43220)
T1 construct: expressed in transfected cells; host or cells: membranes of BHK cells, parent line BHKTS13, clone FCW467-12A
Experiment: Assay (II)(a): GLP-1 receptor binding, [125I]GLP-1 displacement, SPA on BHK membranes
Settings: displacement of [125I]GLP-1, membranes with human GLP-1 receptor; read-out: IC50 GLP-1R
Protocol: Assay (II): GLP-1 and Glucagon Receptor Binding The purpose of this assay is to test the in vitro receptor binding activity of the GLP-1 derivatives of the invention. (a) GLP-1 Receptor Binding The GLP-1 receptor (GLP-1R) binding is a measure of the affinity of a derivative for the human GLP-1 receptor. The GLP-1 receptor binding of each derivatives were determined with competitive binding, displacing [^125I]GLP-1 bound to GLP-1 receptors expressed in cell membranes associated with wheat germ agglutinin (WGA) scintillation proximity assay (SPA) beads. Each derivative was added in a series of concentrations to isolated membranes comprising the human GLP-1 receptor and displacement of the labelled radioligand was monitored. The receptor binding was reported as the concentration at which half of the labelled ligand is displaced from the receptor, the IC^50 value. The following chemicals were used in the assay: MEM w/o phenol red (Gibco 11880-028), Pen/strep (Invitrogen 15140-122), G418 (Invitrogen 10131-027), 1 M Hepes (Gibco 15630), EDTA (Invitrogen 15575-038), PBS (Invitrogen 14190-094), fetal calf serum (Invitrogen 16140-071), EGTA, MgCl2 (Merck 1.05832.1000), Tween 20 (Amresco 0850C335), SPA particles (wheat germ agglutinin (WGA) SPA beads, Perkin Elmer RPNQ0001), [125I]-GLP-1]-(7-36)NH2 (produced in-house), OptiPlate™-96 (Perkin Elmer). Buffer 1 consisted of 20 mM Na-HEPES plus 10 mM EDTA and pH was adjusted to 7.4. Buffer 2 consisted of 20 mM Na-HEPES plus 0.1 mM EDTA and pH was adjusted to 7.4. Assay buffer consisted of 50 mM HEPES supplemented with 5 mM EGTA, 5 mM MgCl2, 0.005% Tween 20 and pH was adjusted to 7.4. A 0.02% albumin stock consisted of HSA dissolved at 0.02% (w/v) in assay buffer. The cells used in this assay (clone FCW467-12A) were BHK cells with BHKTS13 as a parent cell line. The cells express the human GLP-1 receptor. The cells were grown at 5% CO2 in DMEM, 10% fetal calf serum, 1% Pen/Strep (Penicillin/Streptomycin) and 1.0 mg/ml of the selection marker G418. To make a membrane preparation the cells were grown to approximately 80% confluence. The cells were washed twice in phosphate-buffered saline and harvested. The cells were pelleted using a brief centrifugation and the cell pellet was kept on ice. The cell pellet was homogenised with ULTRA-THURRAX dispersing instrument for 20-30 seconds in a suitable amount of buffer 1 (e.g., 10 ml). The homogenate was centrifuged for 15 minutes. The pellet was re-suspended (homogenised) in 10 ml buffer 2 and centrifuged. This step was repeated once more. The resulting pellet was re-suspended in buffer 2 and the protein concentration was determined. The membranes were aliquoted and stored at minus 80° C. • 1. For the receptor binding assay 50 μl of the assay buffer was added to each well of an assay plate. • 2. Test compounds were serially diluted to give the following concentrations: 8×10EE-7 M, 8×10EE-8 M, 8×10EE-9 M, 8×10EE-10 M, 8×10EE-11 M, 8×10EE-12 M and 8×10EE-13 M. Twenty-five μl were added to appropriate wells in the assay plate. • 3. Cell membrane aliquots were thawed and diluted to their working concentration. Fifty μl were added to each well in the assay plate. • 4. WGA SPA beads were suspended in assay buffer at 20 mg/ml. The suspension was diluted to 10 mg/ml in assay buffer just prior to addition to the assay plate. Fifty μl were added to each well in the assay plate. • 5. The incubation was started by adding 25 μl of 480 pM solution of [125I]-GLP-1]-(7-36)NH2 to each well of the assay plate. A 25 μl aliquot was reserved for measuring total counts/well. • 6. The assay plate was incubated for 2 h at 30° C. • 7. The assay plate was centrifuged for 10 min. • 8. The assay plate was read in a Perkin Elmer TopCount NXT instrument. Calculations The data from the TopCount instrument were transferred to GraphPad Prism software. The software averaged the values for the replicates and performed a non-linear regression. IC50 values were calculated by the software and reported in nM. […]

T1 sequence (P43220 24-463): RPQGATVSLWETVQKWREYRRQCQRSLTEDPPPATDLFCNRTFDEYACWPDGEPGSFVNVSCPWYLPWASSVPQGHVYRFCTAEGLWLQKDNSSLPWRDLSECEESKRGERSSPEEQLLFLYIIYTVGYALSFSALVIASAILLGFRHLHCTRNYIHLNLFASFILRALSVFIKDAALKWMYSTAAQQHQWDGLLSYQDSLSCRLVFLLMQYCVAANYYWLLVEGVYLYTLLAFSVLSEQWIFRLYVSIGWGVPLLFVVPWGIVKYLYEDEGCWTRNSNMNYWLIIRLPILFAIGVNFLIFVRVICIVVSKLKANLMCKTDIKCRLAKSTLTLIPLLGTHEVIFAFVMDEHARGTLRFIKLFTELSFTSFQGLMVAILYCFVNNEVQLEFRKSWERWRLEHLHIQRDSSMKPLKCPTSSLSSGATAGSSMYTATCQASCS

For `CC[C@H](C)[C@H](NC(=O)[C@H](Cc1ccccc1)NC(=O)[C@H](CCC(=O)O)NC(=O)[C@H](CCCNC(=N)N)NC(=O)[C@H](C)NC(=O)[C@H](C)NC(=O)[C@H](CCC(N)=O)NC(=O)[C@H](CCC(=O)O)NC(=O)[C@H](CCC(=O)O)NC(=O)[C@H](CC(C)C)NC(=O)[C@H](Cc1ccc(O)cc1)NC(=O)[C@H](CCCCN)NC(=O)[C@H](CO)NC(=O)[C@@H](NC(=O)[C@H](CC(=O)O)NC(=O)[C@H](CO)NC(=O)[C@@H](NC(=O)[C@H](Cc1ccccc1)NC(=O)[C@@H](NC(=O)CNC(=O)[C@H](Cc1c[nH]cn1)NC(=O)C1(NC(=O)CCc2c[nH]cn2)CCC1)[C@@H](C)O)[C@@H](C)O)C(C)C)C(=O)N[C@@H](C)C(=O)N[C@@H](Cc1c[nH]c2ccccc12)C(=O)N[C@@H](CC(C)C)C(=O)N[C@@H](CC(C)C)C(=O)N[C@@H](CCCCN)C(=O)N[C@@H](CCCCNC(=O)CNC(=O)[C@H](CO)NC(=O)[C@H](CCC(=O)O)NC(=O)CNC(=O)[C@H](CO)NC(=O)CC[C@H](NC(=O)CC[C@H](NC(=O)CCCCCCCCCCCCCCCCC(=O)O)C(=O)O)C(=O)O)C(N)=O` [Example 2, N^ε35-[2-[[(2S)-2-[[(2S)-4-carboxy-2-[[2-[[(2S)-2-[[(4S)-4-carboxy-4-[[(4S)-4-carboxy-4-(17-carboxyheptadecanoylamino)butanoyl]amino]butanoyl]amino]-3-hydroxypropanoyl]amino]acetyl]amino]butanoyl]amino]-3-hydroxypropanoyl]amino]acetyl]-[Imp7,Acb8,His9,Lys18,Glu22,Arg26,Leu33,Lys35]-GLP-1-(7-35)-peptide amide] (I: Desaminohistidyl-[Ac4c]HGTFTSDVSKYLEEQAAREFIAWLLKK-NH2 / II: {C18 diacid-γGlu-γGlu}-SGESG; amide I:28-II:C), the IC50 was 0.1 nM.
In the case of `CC[C@H](C)[C@H](NC(=O)[C@H](Cc1ccccc1)NC(=O)[C@H](CCC(=O)O)NC(=O)[C@H](CCCNC(=N)N)NC(=O)[C@H](C)NC(=O)[C@H](C)NC(=O)[C@H](CCC(N)=O)NC(=O)[C@H](CCC(=O)O)NC(=O)[C@H](CCC(=O)O)NC(=O)[C@H](CC(C)C)NC(=O)[C@H](Cc1ccc(O)cc1)NC(=O)[C@H](CCCCN)NC(=O)[C@H](CO)NC(=O)[C@@H](NC(=O)[C@H](CC(=O)O)NC(=O)[C@H](CO)NC(=O)[C@@H](NC(=O)[C@H](Cc1ccccc1)NC(=O)[C@@H](NC(=O)CNC(=O)[C@H](Cc1c[nH]cn1)NC(=O)C(C)(C)NC(=O)CCc1c[nH]cn1)[C@@H](C)O)[C@@H](C)O)C(C)C)C(=O)N[C@@H](C)C(=O)N[C@@H](Cc1c[nH]c2ccccc12)C(=O)N[C@@H](CC(C)C)C(=O)N[C@H](C(=O)N[C@@H](CCCCNC(=O)COCCOCCNC(=O)COCCOCCNC(=O)CC[C@H](NC(=O)CC[C@H](NC(=O)CCCCCCCCCCCCCCCCC(=O)O)C(=O)O)C(=O)O)C(=O)N[C@H](C(N)=O)[C@@H](C)O)[C@@H](C)CC` [Example 42, N^ε34-[2-[2-[2-[[2-[2-[2-[[(4S)-4-carboxy-4-[[(4S)-4-carboxy-4-(17-carboxyheptadecanoylamino)butanoyl]amino]butanoyl]amino]ethoxy]ethoxy]acetyl]amino]ethoxy]ethoxy]acetyl]-[Imp7,Aib8, His9,Lys18,Glu22,Arg26,Ile33,Thr35]-GLP-1-(7-35)-peptide amide] (Desaminohistidyl-[Aib]HGTFTSDVSKYLEEQAAREFIAWLIK([AEEA-AEEA-γGlu-γGlu-C18 diacid])T-NH2), the IC50 is reported as 0.2 nM.
Work on `CC[C@H](C)[C@H](NC(=O)[C@H](Cc1ccccc1)NC(=O)[C@H](CCC(=O)O)NC(=O)[C@H](CCCNC(=N)N)NC(=O)[C@H](C)NC(=O)[C@H](C)NC(=O)[C@H](CCCNC(=N)N)NC(=O)[C@H](CCCCNC(=O)CC[C@H](NC(=O)CC[C@H](NC(=O)COCCOCCNC(=O)COCCOCCNC(=O)CC[C@H](NC(=O)CCCCCCCCCCCCCCCCC(=O)O)C(=O)O)C(=O)O)C(=O)O)NC(=O)[C@H](CCC(=O)O)NC(=O)[C@H](CC(C)C)NC(=O)[C@H](Cc1ccc(O)cc1)NC(=O)[C@H](CCCCN)NC(=O)[C@H](CO)NC(=O)[C@@H](NC(=O)[C@H](CC(=O)O)NC(=O)[C@H](CO)NC(=O)[C@@H](NC(=O)[C@H](Cc1ccccc1)NC(=O)[C@@H](NC(=O)CNC(=O)[C@H](Cc1c[nH]cn1)NC(=O)C1(NC(=O)CCc2c[nH]cn2)CCC1)[C@@H](C)O)[C@@H](C)O)C(C)C)C(=O)N[C@@H](C)C(=O)N[C@@H](Cc1c[nH]c2ccccc12)C(=O)N[C@@H](CC(C)C)C(=O)N[C@@H](CC(C)C)C(=O)N[C@@H](CCCCN)C(=O)N[C@H](C(N)=O)[C@@H](C)O` [Example 32, N^ε22-[(4S)-4-carboxy-4-[[(4S)-4-carboxy-4-[[2-[2-[2-[[2-[2-[2-[[(4S)-4-carboxy-4-(17-carboxyheptadecanoylamino)butanoyl]amino]ethoxy]ethoxy]acetyl]amino]ethoxy]ethoxy]acetyl]amino]butanoyl]amino]butanoyl]-[Imp7,Acb8,His9,Lys18,Lys22,Arg23,Arg26,Leu33,Thr35]-GLP-1-(7-35)-peptide amide] (Desaminohistidyl-[Ac4c]HGTFTSDVSKYLEK([γGlu-γGlu-AEEA-AEEA-γGlu-C18 diacid])RAAREFIAWLLKT-NH2) yielded an IC50 of 0.2 nM.
Work on `CC[C@H](C)[C@H](NC(=O)[C@H](Cc1ccccc1)NC(=O)[C@H](CCC(=O)O)NC(=O)[C@H](CCCNC(=N)N)NC(=O)[C@H](C)NC(=O)[C@H](C)NC(=O)[C@H](CCC(N)=O)NC(=O)[C@H](CCCCNC(=O)CC[C@H](NC(=O)CC[C@H](NC(=O)COCCOCCNC(=O)COCCOCCNC(=O)CC[C@H](NC(=O)CCCCCCCCCCCCCCCCC(=O)O)C(=O)O)C(=O)O)C(=O)O)NC(=O)[C@H](CCC(=O)O)NC(=O)[C@H](CC(C)C)NC(=O)[C@H](Cc1ccc(O)cc1)NC(=O)[C@H](CCCCN)NC(=O)[C@H](CO)NC(=O)[C@@H](NC(=O)[C@H](CC(=O)O)NC(=O)[C@H](CO)NC(=O)[C@@H](NC(=O)[C@H](Cc1ccccc1)NC(=O)[C@@H](NC(=O)CNC(=O)[C@H](Cc1c[nH]cn1)NC(=O)C1(NC(=O)CCc2c[nH]cn2)CCC1)[C@@H](C)O)[C@@H](C)O)C(C)C)C(=O)N[C@@H](C)C(=O)N[C@@H](Cc1c[nH]c2ccccc12)C(=O)N[C@@H](CC(C)C)C(=O)N[C@@H](CC(C)C)C(=O)N[C@@H](CCCCN)C(=O)N[C@H](C(N)=O)[C@@H](C)O` [Example 33, N^ε22-[(4S)-4-carboxy-4-[[(4S)-4-carboxy-4-[[2-[2-[2-[[2-[2-[2-[[(4S)-4-carboxy-4-(17-carboxyheptadecanoylamino)butanoyl]amino]ethoxy]ethoxy]acetyl]amino]ethoxy]ethoxy]acetyl]amino]butanoyl]amino]butanoyl]-[Imp7,Acb8,His9,Lys18,Lys22,Arg26,Leu33,Thr35]-GLP-1-(7-35)-peptide amide] (Desaminohistidyl-[Ac4c]HGTFTSDVSKYLEK([γGlu-γGlu-AEEA-AEEA-γGlu-C18 diacid])QAAREFIAWLLKT-NH2) yielded an IC50 of 0.2 nM.
